Experimental data taken from ChEMBL document CHEMBL4138175, “Newly designed organotin(IV) carboxylates with peptide linkage: Synthesis, structural elucidation, physicochemical characterizations and pharmacological investigations” (Eur J Med Chem, 2018).
Calls of active or inactive are those of the source. The rule behind the calls is not given here.

Experiments:
Escherichia coli [1] = assay: Antibacterial activity against Escherichia coli assessed as zone of inhibition after 24 to 48 hrs by well diffusion method; type: functional
Streptococcus pyogenes = assay: Antibacterial activity against Streptococcus pyogenes assessed as zone of inhibition after 24 to 48 hrs by well diffusion method; type: functional
Pseudomonas aeruginosa [2] = assay: Antibacterial activity against Pseudomonas aeruginosa assessed as zone of inhibition after 24 to 48 hrs by well diffusion method; type: functional
Klebsiella pneumoniae [3] = assay: Antibacterial activity against Klebsiella pneumoniae assessed as zone of inhibition after 24 to 48 hrs by well diffusion method; type: functional
Serratia marcescens [4] = assay: Antibacterial activity against Serratia marcescens assessed as zone of inhibition after 24 to 48 hrs by well diffusion method; type: functional
[5] = test system: Staphylococcus epidermidis; assay: Antibacterial activity against Staphylococcus epidermidis assessed as zone of inhibition after 24 to 48 hrs by well diffusion method; type: functional
Staphylococcus aureus [6] = assay: Antibacterial activity against Staphylococcus aureus assessed as zone of inhibition after 24 to 48 hrs by well diffusion method; type: functional
Staphylococcus aureus [7] = assay: Antibacterial activity against Staphylococcus aureus assessed as zone of inhibition by measuring activity index after 24 to 48 hrs by well diffusion method relative to penicillin G; type: functional, organism-based
NCI-H157 [8] = assay: Cytotoxicity against human NCI-H157 cells at 100 uM after 48 hrs by sulforhodamine B assay; type: functional
Leishmania major [9] = assay: Antileishmanial activity against Leishmania major promastigotes at 1 uM after 72 hrs by MTT assay relative to control; type: functional
Staphylococcus aureus [10] = assay: Antibacterial activity against Staphylococcus aureus assessed as zone of inhibition by measuring activity index after 24 to 48 hrs by well diffusion method relative to amoxicillin; type: functional, organism-based
Staphylococcus aureus [11] = assay: Antibacterial activity against Staphylococcus aureus assessed as zone of inhibition by measuring activity index after 24 to 48 hrs by well diffusion method relative to ampicillin; type: functional, organism-based
Klebsiella pneumoniae [12] = assay: Antibacterial activity against Klebsiella pneumoniae assessed as zone of inhibition by measuring activity index after 24 to 48 hrs by well diffusion method relative to penicillin G; type: functional, organism-based
Pseudomonas aeruginosa [13] = assay: Antibacterial activity against Pseudomonas aeruginosa assessed as zone of inhibition by measuring activity index after 24 to 48 hrs by well diffusion method relative to amoxicillin; type: functional, organism-based
NCI-H157 [14] = assay: Cytotoxicity against human NCI-H157 cells at 10 uM after 48 hrs by sulforhodamine B assay; type: functional
Leishmania major [15] = assay: Antileishmanial activity against Leishmania major promastigotes at 100 uM after 72 hrs by MTT assay relative to control; type: functional
Serratia marcescens [16] = assay: Antibacterial activity against Serratia marcescens assessed as zone of inhibition by measuring activity index after 24 to 48 hrs by well diffusion method relative to amoxicillin; type: functional
DNA [17] = assay: Binding affinity to single-stranded DNA (unknown origin) assessed as red shift up to 72 uM after 10 mins by UV-visible spectrometric method; type: nucleic-acid assay
Leishmania major [18] = assay: Antileishmanial activity against Leishmania major promastigotes at 0.1 uM after 72 hrs by MTT assay relative to control; type: functional
NCI-H157 [19] = assay: Cytotoxicity against human NCI-H157 cells at 0.1 uM after 48 hrs by sulforhodamine B assay; type: functional
Serratia marcescens [20] = assay: Antibacterial activity against Serratia marcescens assessed as zone of inhibition by measuring activity index after 24 to 48 hrs by well diffusion method relative to ampicillin; type: functional
Leishmania major [21] = assay: Antileishmanial activity against Leishmania major promastigotes at 10 uM after 72 hrs by MTT assay relative to control; type: functional
NCI-H157 [22] = assay: Cytotoxicity against human NCI-H157 cells after 48 hrs by sulforhodamine B assay; type: functional, cell-based
[23] = test system: Staphylococcus epidermidis; assay: Antibacterial activity against Staphylococcus epidermidis assessed as zone of inhibition by measuring activity index after 24 to 48 hrs by well diffusion method relative to tetracycline; type: functional, organism-based
DNA [24] = assay: Binding affinity to single-stranded DNA (unknown origin) after 10 mins by UV-visible spectrometric method; type: nucleic-acid assay
[25] = test system: Staphylococcus epidermidis; assay: Antibacterial activity against Staphylococcus epidermidis assessed as zone of inhibition by measuring activity index after 24 to 48 hrs by well diffusion method relative to amoxicillin; type: functional, organism-based
Serratia marcescens [26] = assay: Antibacterial activity against Serratia marcescens assessed as zone of inhibition by measuring activity index after 24 to 48 hrs by well diffusion method relative to penicillin G; type: functional
Staphylococcus aureus [27] = assay: Antibacterial activity against Staphylococcus aureus assessed as zone of inhibition by measuring activity index after 24 to 48 hrs by well diffusion method relative to tetracycline; type: functional, organism-based
Pseudomonas aeruginosa [28] = assay: Antibacterial activity against Pseudomonas aeruginosa assessed as zone of inhibition by measuring activity index after 24 to 48 hrs by well diffusion method relative to penicillin G; type: functional, organism-based
Escherichia coli [29] = assay: Antibacterial activity against Escherichia coli assessed as zone of inhibition by measuring activity index after 24 to 48 hrs by well diffusion method relative to tetracycline; type: functional
NCI-H157 [30] = assay: Cytotoxicity against human NCI-H157 cells at 1 uM after 48 hrs by sulforhodamine B assay; type: functional
Pseudomonas aeruginosa [31] = assay: Antibacterial activity against Pseudomonas aeruginosa assessed as zone of inhibition by measuring activity index after 24 to 48 hrs by well diffusion method relative to tetracycline; type: functional, organism-based
Klebsiella pneumoniae [32] = assay: Antibacterial activity against Klebsiella pneumoniae assessed as zone of inhibition by measuring activity index after 24 to 48 hrs by well diffusion method relative to amoxicillin; type: functional, organism-based
Klebsiella pneumoniae [33] = assay: Antibacterial activity against Klebsiella pneumoniae assessed as zone of inhibition by measuring activity index after 24 to 48 hrs by well diffusion method relative to tetracycline; type: functional, organism-based
Klebsiella pneumoniae [34] = assay: Antibacterial activity against Klebsiella pneumoniae assessed as zone of inhibition by measuring activity index after 24 to 48 hrs by well diffusion method relative to ampicillin; type: functional, organism-based
Pseudomonas aeruginosa [35] = assay: Antibacterial activity against Pseudomonas aeruginosa assessed as zone of inhibition by measuring activity index after 24 to 48 hrs by well diffusion method relative to ampicillin; type: functional, organism-based

Molecule	inhibition zone (IZ) (Escherichia coli [1])	inhibition zone (IZ) (Streptococcus pyogenes)	inhibition zone (IZ) (Pseudomonas aeruginosa [2])	inhibition zone (IZ) (Klebsiella pneumoniae [3])	inhibition zone (IZ) (Serratia marcescens [4])	inhibition zone (IZ) [5]	inhibition zone (IZ) (Staphylococcus aureus [6])	Activity (NCI-H157 [8])	Activity (Leishmania major [9])	Activity (NCI-H157 [14])	Activity (Leishmania major [15])	Activity index (Serratia marcescens [16])	Activity (Leishmania major [18])	Activity (NCI-H157 [19])	Activity index (Serratia marcescens [20])	Activity (Leishmania major [21])	Activity (NCI-H157 [22])	Activity index [23]	Activity index [25]	Activity index (Serratia marcescens [26])	further results
CN(C)[C@@H]1C(O)=C(C(N)=O)C(=O)[C@@]2(O)C(O)=C3C(=O)c4c(O)cccc4[C@@](C)(O)[C@H]3C[C@@H]12 [TETRACYCLINE]	2 mm	0 mm	6 mm	14 mm	0 mm	10 mm	0 mm														
(2,9-Dimethyl-1,10-Phenanthroline) trimethylstannyl 2-(4-methoxy-2-nitrophenylcarbamo-yl)benzoate	1.53 mm	5 mm	23 mm	inactive	15.7 mm	16 mm	inactive	52.8%	56.7%	50.3%	62.1%	2.61	52.1%	45.5%	1.96	59.5%	Dose-dependent effect	1.6	8	1.96	Activity_index (Staphylococcus aureus [7]): inactive; Activity_index (Staphylococcus aureus [10]): inactive; Activity_index (Staphylococcus aureus [11]): inactive; Activity_index (Klebsiella pneumoniae [12]): inactive; Activity index (Pseudomonas aeruginosa [13]): 3.84; Activity (DNA [17]): < 3 nm; K (DNA [24]): 2 ×10⁴ /M; Activity_index (Staphylococcus aureus [27]): inactive; Activity index (Pseudomonas aeruginosa [28]): 3.84; Activity index (Escherichia coli [29]): 0.77; Activity (NCI-H157 [30]): 48.6%; Activity index (Pseudomonas aeruginosa [31]): 3.84
Dibenzylstannanediyl bis 2-(4-methoxy-2-nitrophenylcarbamoyl)benzoate	9 mm	10.7 mm	14.3 mm	15 mm	7.66 mm	11 mm	10.7 mm	74.5%	62.5%	71.3%	72.4%	1.28	60.9%	62.7%	0.96	66.3%	Dose-dependent effect	1.1	5.5	0.96	Activity index (Klebsiella pneumoniae [32]): 2.5; Activity index (Klebsiella pneumoniae [33]): 1.07; Activity index (Pseudomonas aeruginosa [13]): 2.39; Activity index (Klebsiella pneumoniae [34]): 2.5; Activity index (Pseudomonas aeruginosa [28]): 2.39; Activity index (Escherichia coli [29]): 4.5; Activity (NCI-H157 [30]): 67.4%; Activity index (Pseudomonas aeruginosa [31]): 2.39
Dibutylstannanediyl bis 2-(4-methoxy-2-nitrophenylcarbamoyl)benzoate	19.3 mm	6 mm	inactive	26 mm	18.3 mm	15 mm	24 mm	55.5%	49.6%	52.6%	54.2%	3.05	47.6%	43.9%	2.29	50.6%	Dose-dependent effect	1.5	7.5	2.29	Activity index (Klebsiella pneumoniae [32]): 4.34; Activity index (Klebsiella pneumoniae [33]): 1.88; Activity index (Klebsiella pneumoniae [34]): 4.34; Activity_index (Pseudomonas aeruginosa [35]): inactive; Activity index (Escherichia coli [29]): 9.67; Activity (NCI-H157 [30]): 47.4%
C[C@@H]1[C@H](O)[C@@H](C)/C=C/C=C/C=C/C=C/C=C/C=C/C=C/[C@H](O[C@@H]2O[C@H](C)[C@@H](O)[C@H](N)[C@@H]2O)C[C@@H]2O[C@](O)(C[C@@H](O)C[C@@H](O)[C@H](O)CC[C@@H](O)C[C@@H](O)CC(=O)O[C@H]1C)C[C@H](O)[C@H]2C(=O)O [AMPHOTERICIN B]									74.8%		79.8%		69.9%			76.3%					
CC1(C)S[C@@H]2[C@H](NC(=O)[C@H](N)c3ccc(O)cc3)C(=O)N2[C@H]1C(=O)O [AMOXICILLIN]	0 mm	0 mm	6 mm	6 mm	6 mm	2 mm	0 mm														
CC1(C)S[C@@H]2[C@H](NC(=O)Cc3ccccc3)C(=O)N2[C@H]1C(=O)O [PENICILLIN G]	0 mm	0 mm	6 mm	0 mm	8 mm	0 mm	0 mm														
CC1(C)S[C@@H]2[C@H](NC(=O)[C@H](N)c3ccccc3)C(=O)N2[C@H]1C(=O)O [AMPICILLIN]	0 mm	0 mm	0 mm	6 mm	8 mm	0 mm	0 mm														
Triphenylstannyl 2-(4-methoxy-2-nitrophenylcarbamoyl)benzoate	11 mm	11.7 mm	22.7 mm	20.2 mm	4.66 mm	19 mm	4.66 mm	61.7%	53.6%	58.4%	64.3%	0.78	50.7%	52.3%	0.58	59.4%	Dose-dependent effect	1.9	9.5	0.58	Activity index (Klebsiella pneumoniae [32]): 3.37; Activity index (Klebsiella pneumoniae [33]): 1.44; Activity index (Pseudomonas aeruginosa [13]): 3.78; Activity index (Klebsiella pneumoniae [34]): 3.37; Activity index (Pseudomonas aeruginosa [28]): 3.78; Activity index (Escherichia coli [29]): 5.5; Activity (NCI-H157 [30]): 55.7%; Activity index (Pseudomonas aeruginosa [31]): 3.78
